Assay results published in article PMC9377253, “Antiproliferative and cytotoxic effects of sesquiterpene lactones isolated from Ambrosia artemisiifolia on human adenocarcinoma and normal cell lines” (Pharmaceutical Biology, 2022).

Experiments:
[1] = MTT cytotoxicity assay (24 h), MRC-5; assay type: cell-based; conditions: human, MRC-5 embryonal lung fibroblast cells, 24 h incubation
Protocol: (§1) MRC-5 human embryonal lung fibroblast cell lines (ATCC CCL-171) were purchased from LGC Promochem, Teddington, UK. The cell line was cultured in Eagle’s Minimal Essential Medium (EMEM, containing 4.5 g/L glucose) supplemented with a non-essential amino acid mixture, a selection of vitamins and 10% heat-inactivated foetal bovine serum. The cell lines were incubated at 37 °C, in a 5% CO2, 95% air atmosphere.
(§2) MRC-5 non-cancerous human embryonic lung fibroblast and human colonic adenocarcinoma cell lines (doxorubicin-sensitive Colo 205 and multidrug-resistant Colo 320 colonic adenocarcinoma cells) were used to determine the effect of compounds on cell proliferation and growth. The effects of increasing concentrations of compounds on cell proliferation and growth were tested in 96-well flat-bottomed microtitre plates. The compounds were diluted in a volume of 100 μL of medium.
(§3) The adherent human embryonal lung fibroblast cells were seeded overnight and cultured in 96-well flat-bottomed microtitre plates prior to the assay, using EMEM supplemented with 10% heat-inactivated foetal bovine serum. The density of the cells was adjusted to 6 × 10^3 cells (antiproliferative assay) or 1 × 10^4 cells (cytotoxicity assay) in 100 μL per well, the cells were seeded for 24 h at 37 °C, 5% CO2, then the medium was removed from the plates containing the cells, and the dilutions of compounds (200 µL) previously made in a separate plate were added to the cells in.
(§4) The culture plates were incubated at 37 °C for 72 h (antiproliferative test) or 24 h (cytotoxicity test); at the end of the incubation period, 20 μL of MTT (thiazolyl blue tetrazolium bromide, Sigma, St. Louis, MO, USA) solution (from a stock solution of 5 mg/mL) were added to each well. After incubation at 37 °C for 4 h, 100 μL of sodium dodecyl sulphate (SDS) (Sigma) solution (10% in 0.01 M HCI) were added to each well and the plates were further incubated at 37 °C overnight. Cell growth was determined by measuring the optical density (OD) at 540/630 nm with Multiscan EX ELISA reader (Thermo Labsystems, Cheshire, WA, USA). Inhibition of the cell growth was determined according to the formula below: Inhibition %=100−[OD sample−OD medium control/OD cell control−OD medium control]×100
(§5) Results are expressed in terms of IC50, defined as the inhibitory dose that reduces the growth of the cells exposed to the tested compounds by 50%.

[2] = system: doxorubicin-sensitive Colo 205 colonic adenocarcinoma cells; assay: MTT cytotoxicity assay (24 h), Colo 205; assay type: cell-based, human; conditions: Homo sapiens, COLO 205; MTT, 24 h incubation; read-out: Cytotoxicity IC50, Colo205
Protocol: (§6) Human colonic adenocarcinoma cell lines (Colo 205 doxorubicin-sensitive and Colo 320/MDR-LRP multidrug-resistant expressing ABCB1 (MDR1)-LRP), ATCC-CCL-220.1 (Colo 320) and CCL-222 (Colo 205) were purchased from LGC Promochem, Teddington, UK. The cells were cultured in RPMI 1640 medium supplemented with 10% heat-inactivated foetal bovine serum, 2 mM L-glutamine, 1 mM Na-pyruvate and 100 mM Hepes. The cell lines were incubated at 37 °C, in a 5% CO2, 95% air atmosphere. The semi-adherent human colon cancer cells were detached with Trypsin-Versene (EDTA) solution for 5 min at 37 °C.
as §2
(§7) In case of the colonic adenocarcinoma cells, the 2-fold serial dilutions of compounds were prepared in 100 μL of RPMI 1640, horizontally. The semi-adherent colonic adenocarcinoma cells were treated with Trypsin-Versene (EDTA) solution. The density of the cells was adjusted to 6 × 10^3 cells (antiproliferative assay) or 1 × 10^4 cells (cytotoxicity assay) in 100 μL of RPMI 1640 medium, and was added to each well, with the exception of the medium control wells. The final volume of the wells containing compounds and cells was 200 μL.
as §4, §5

[3] = system: multidrug-resistant Colo 320 colonic adenocarcinoma cells; assay: MTT cytotoxicity assay (24 h), Colo 320; assay type: cell-based; conditions: Homo sapiens, COLO 320, 24 h, 24 h incubation, read-out: Cytotoxicity IC50, Colo320
Protocol: as §6, §2, §7, §4, §5

[4] = system: MRC-5 human embryonal lung fibroblast cell line; assay: MTT antiproliferative assay (72 h), MRC-5; assay type: cell-based
Protocol: as §1, §2, §3, §4, §5

[5] = system: doxorubicin-sensitive Colo 205 colonic adenocarcinoma cells; assay: MTT antiproliferative assay (72 h), Colo 205; assay type: cell-based, human; conditions: read-out: Antiproliferative IC50, Colo205
Protocol: as §6, §2, §7, §4, §5

[6] = system: multidrug-resistant Colo 320 colonic adenocarcinoma cells; assay: MTT antiproliferative assay (72 h), Colo 320; assay type: cell-based, human; conditions: for IC50: MTT, 72 h incubation, read-out: Antiproliferative IC50, Colo320
Protocol: as §6, §2, §7, §4, §5

[7] = system: multidrug-resistant Colo 320 colonic adenocarcinoma cells expressing the ABCB1 transporter; assay: Checkerboard combination assay with doxorubicin; assay type: cell-based, human; conditions: for drug interaction with doxorubicin: Colo320, at certain concentrations
Protocol: A checkerboard microplate method was applied to study the effect of drug interactions between the compounds and doxorubicin. The assay was carried out using multidrug-resistant Colo 320 colonic adenocarcinoma cells expressing the ABCB1 transporter. The final concentration of the chemotherapeutic agent doxorubicin used in the combination experiment was chosen in accordance with their antiproliferative activity previously determined. The dilutions of the chemotherapeutic drug were made in a horizontal direction in 100 μL, and the dilutions of the compounds vertically in the microtitre plate in 50 μL volume. The cells were re-suspended in culture medium and distributed into each well in 50 μL containing 6 × 10^3 cells each. The plates were incubated for 72 h at 37 °C in 5% CO2 atmosphere. The cell growth rate was determined after MTT staining. At the end of the incubation period, 20 μL of MTT (thiazolyl blue tetrazolium bromide, Sigma) solution (from a stock solution of 5 mg/mL) was added to each well. After incubation at 37 °C for 4 h, 100 μL of SDS (Sigma-Aldrich, St. Louis, MO, USA) solution (10% in 0.01 M HCl; Merck, Darmstadt, Germany) were added to each well and the plates were further incubated at 37 °C overnight. OD was measured at 540/630 nm with Multiscan EX ELISA reader (Thermo Labsystems, Cheshire, WA). Combination index (CI) values at 50% of the growth inhibition dose (ED50), were determined using CompuSyn software (ComboSyn, Inc., Paramus, NJ) to plot four to five data points to each ratio.

NF-κB = system: NF-κB; design: method as in Sotillo et al. [2017]; conditions: ref Sotillo et al. [2017]; cited from earlier work
[8] = system: breast cancer cell lines (MCF-7, JIMT-1 and HCC1937); design: method as in Sotillo et al. [2017]; conditions: ref Sotillo et al. [2017]; cited from earlier work
[9] = Homo sapiens, MRC5, 72 h incubation
[10] = Homo sapiens, COLO 205, 72 h incubation

C=C1C(=O)O[C@@H]2C[C@H](C)[C@]3(O)CCC(=O)[C@@]3(C)C[C@H]12 [Compound 3, peruvin]
IC50 at 24 h [1]: 11.9 ± 1.45 µM | IC50 [2]: 64.4 ± 1.78 µM | IC50 [3]: 82.4 ± 1.17 µM | IC50 [4, 9]: 26.4 ± 1.3 µM | IC50 [5, 10]: 26.4 ± 1.12 µM | IC50 ([6]; Homo sapiens, COLO 320, 72 h): 21.2 ± 0.72 µM | Type of interaction ([7]; starting concentration 65 µM, ratio 7.54:1): Moderate antagonism | Type of interaction ([7]; starting concentration 65 µM, ratio 15.08:1): Antagonism | Type of interaction ([7]; starting concentration 65 µM, ratio 30.16:1): Antagonism | Type of interaction ([7]; starting concentration 65 µM, ratio 60.32.1): Moderate antagonism | Type of interaction ([7]; starting concentration 65 µM, ratio 120.64:1): Antagonism | Type of interaction ([7]; starting concentration 65 µM, ratio 241.28:1): Additive effect

COc1cccc2c1C(=O)c1c(O)c3c(c(O)c1C2=O)C[C@@](O)(C(=O)CO)C[C@@H]3O[C@H]1C[C@H](N)[C@H](O)[C@H](C)O1 [Doxorubicin, doxorubicin, reference compound]
IC50 [4, 9]: 0.53 ± 0.06 µM | IC50 [5, 10]: 0.24 ± 0.03 µM | IC50 ([6]; Homo sapiens, COLO 320, 72 h): 0.14 ± 0.03 µM

C=C1C(=O)O[C@@H]2[C@H]1CC[C@H](C)[C@@H]1CCC(=O)[C@@]21C [damsin]
TNF-α-induced translocation of NF-κB (NF-κB): inhibited | cytotoxicity to breast cancer cell lines [8]: cytotoxic

C=C1C(=O)O[C@@H]2[C@H]1CCC(C)=C1CCC(=O)O[C@]12C [Compound 6, psilostachyin B]
IC50 ([4]; 72 h incubation): 26.4 ± 0.81 µM | IC50 ([5]; 72 h incubation): 11 ± 0.56 µM | selectivity index (SI), antiproliferative ([6]; Colo320 versus MRC-5, cell proliferation inhibition): 4.98 | IC50 [6]: 5.29 ± 0.15 µM | Type of interaction ([7]; starting concentration 100 µM, ratio 11.6:1): Syn. | Type of interaction ([7]; starting concentration 100 µM, ratio 23.2:1): Syn. | Type of interaction ([7]; starting concentration 100 µM, ratio 46.4:1): Antagonism | Type of interaction ([7]; starting concentration 100 µM, ratio 92.8:1): Slight antagonism | Type of interaction ([7]; starting concentration 100 µM, ratio 185.6:1): Moderate ant. | Type of interaction ([7]; starting concentration 100 µM, ratio 371.2:1): Antagonism

COc1c(O)cc2oc(-c3ccc(O)c(O)c3)c(OC)c(=O)c2c1O [Compound 8, axillarin]
IC50 at 24 h [1]: > 100 µM | IC50 [2]: > 100 µM | IC50 [3]: > 100 µM | IC50 [4, 9]: 4.03 ± 0.56 µM | IC50 [5, 10]: 66.8 ± 0.96 µM | IC50 ([6]; Homo sapiens, COLO 320, 72 h): 50.4 ± 2.98 µM | drug interaction with doxorubicin [7]: synergistic effects

C=C1C(=O)O[C@@H]2[C@H]1CC[C@H](C)[C@H](CCC(=O)OC)[C@@]2(C)O [Compound 7, 1,10-dihydro-1′-noraltamisin]
IC50 at 24 h [1]: > 100 µM | IC50 [2]: 53.6 ± 0.87 µM | IC50 [3]: 86.6 ± 1.06 µM | IC50 [4, 9]: 39.8 ± 0.53 µM | IC50 [5, 10]: 17 ± 1.99 µM | IC50 ([6]; Homo sapiens, COLO 320, 72 h): 34.5 ± 2.07 µM | drug interaction with doxorubicin [7]: synergistic effects | Type of interaction ([7]; starting concentration 150 µM, ratio 17.42:1): Very strong syn. | Type of interaction ([7]; starting concentration 150 µM, ratio 34.84:1): Moderate syn. | Type of interaction ([7]; starting concentration 150 µM, ratio 69.68:1): Moderate syn. | Type of interaction ([7]; starting concentration 150 µM, ratio 139.36:1): Moderate syn. | Type of interaction ([7]; starting concentration 150 µM, ratio 278.72:1): Moderate syn. | Type of interaction ([7]; starting concentration 150 µM, ratio 557.44:1): Syn.

C=C1C(=O)O[C@@H]2[C@H]1CCC(C)=C(CCC(=O)OC)[C@@]2(C)O [Compound 5, 1′-noraltamisin]
IC50 at 24 h [1]: > 100 µM | IC50 [2]: > 100 µM | IC50 [3]: > 100 µM | IC50 [4, 9]: > 100 µM | IC50 [5, 10]: > 100 µM | IC50 ([6]; listed as 1′-Noraltamisin): 8.78 µM | IC50 [6]: > 100 µM | Type of interaction ([7]; starting concentration 30 µM, ratio 3.48:1): Antagonism | Type of interaction ([7]; starting concentration 30 µM, ratio 6.69:1): Additive effect | Type of interaction ([7]; starting concentration 30 µM, ratio 13.92:1): Slight synergism | Type of interaction ([7]; starting concentration 30 µM, ratio 27.84:1): Additive effect | Type of interaction ([7]; starting concentration 30 µM, ratio 55.68:1): Moderate antagonism | Type of interaction ([7]; starting concentration 30 µM, ratio 111.36:1): Additive effect

C=C1C(=O)O[C@@H]2[C@H]1CC[C@H](C)[C@@H]1C=CC(=O)[C@@]21C [ambrosin]
TNF-α-induced translocation of NF-κB (NF-κB): inhibited | cytotoxicity to breast cancer cell lines [8]: cytotoxic

C=C1C(=O)O[C@@H]2[C@H]1CC[C@H](C)[C@]1(O)CCC(=O)[C@@]21C [coronopilin]
TNF-α-induced translocation of NF-κB (NF-κB): inhibited | cytotoxicity to breast cancer cell lines [8]: cytotoxic
